The results in this text go back to paper PMC6748986, “Potent modulation of the CepR quorum sensing receptor and virulence in a Burkholderia cepacia complex member using non-native lactone ligands” (Scientific Reports, 2019).

Assay [1] concerns the target T1, CepR (Burkholderia multivorans, UniProt Q93PF7).
T1 sequence (Q93PF7 1-239): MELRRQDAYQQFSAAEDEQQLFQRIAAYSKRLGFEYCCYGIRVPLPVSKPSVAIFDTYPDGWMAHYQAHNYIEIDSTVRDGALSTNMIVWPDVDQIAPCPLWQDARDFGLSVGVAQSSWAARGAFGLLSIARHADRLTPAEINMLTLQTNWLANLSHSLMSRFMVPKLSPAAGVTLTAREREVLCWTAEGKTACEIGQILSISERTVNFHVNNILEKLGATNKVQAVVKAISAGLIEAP
Kind of assay: CepR antagonism in B. multivorans cepI::lacZ reporter (Bm-reporter), competition against C8-AHL. It counts as cell-based. Particulars: for IC50: read-out: IC50; for Inh% (100-Act%): screening conc. 100 μM. The text has this: We next sought to assess if the CepR modulators identified in the Ec-reporter maintained their activities in a member of the Bcc. For these studies, we generated a B. multivorans cepI::lacZ reporter organism (Bm-reporter) using standard allelic exchange methods (see Methods). Along with B. cenocepacia, B. multivorans is one of the most commonly isolated Bcc members[6],[44]. We note that small molecules must contend with a different cellular environment in the native organism relative to E. coli[48]; however, as both CepR and the cepI promoter are highly conserved among Bcc species (Fig. S3), we reasoned that the majority of compounds identified in the Ec-reporter (containing B. cenocepacia versions of the cepI promoter and the cepR gene) would maintain their relative activity profiles in CepR in B. multivorans. […] Similar to the Ec-reporter, CepR binding to the cepI promoter then induces β-galactosidase production, allowing for the quantitation of CepR activity. Using the Bm-reporter organism, we observed robust activity for CepR in response to C8-AHL (EC50 = 0.7 nM, Table 3).
The B. multivorans cepI::lacZ strain was used to obtain dose-response data for CepR in response to synthetic AHLs. Overnight cultures of B. multivorans cepI::lacZ were grown in LB medium at 37 °C with shaking (225 rpm). Aliquots (200 μL) of a 1:10 dilution of this overnight culture were plated into 96-well plates containing varying concentrations of compound, and then grown for 4 h at 37 °C with shaking (225 rpm). β-galactosidase production was measured as described above for E. coli, with the following changes: permeabilized cells were incubated at 25 °C with substrate CPRG for ~10 min until positive control wells developed a deep red color. For agonism assays, synthetic compound was screened alongside and compared to the native ligand, C8-AHL (100 μM). For antagonism assays, the concentration of native ligand utilized was 5 nM (approximately equal to twice its EC50 value).

For assay [2], the target named is T2, CepR (Burkholderia cenocepacia, UniProt B4EMD0).
T2 sequence (B4EMD0 1-239): T1 sequence (Q93PF7 1-239) with R5W, S51A, H69Q, S84N, Q95R, A97D
Kind of assay: CepR agonism in E. coli β-galactosidase reporter (Ec-reporter) JLD271 [pJN105-cepR + pSC11-cepI]. Particulars: for Act%: Table S2, Ec-reporter, screening conc. 100 μM; for Maximal Activation (%): activity for 100 μM C8-AHL set to 100%, error ±10%. The format is cell-based, B. cenocepacia. Summed up:
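E. coli JLD271 (ΔsdiA) carrying arabinose-inducible CepR (27 mM L-arabinose) and cepI-lacZ fusion, grown 4 h with compound; β-galactosidase measured by CPRG cleavage at 37 °C (~30 min), normalized to OD600. Agonism compared with C8-AHL at 100 μM; screen at 100 μM or solubility limit, then dose-response; ≥3 trials.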

The target of assay [3] is T2, CepR. The assay is described as follows: CepR antagonism in E. coli β-galactosidase reporter (Ec-reporter), competition against C8-AHL. The format is cell-based, B. cenocepacia. The following applies: for Inh% (100-Act%): screening conc. 100 μM. Summed up: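 CepR antagonism was measured in E. coli JLD271 (∆sdiA) carrying pJN105-cepR, which expresses B. cenocepacia CepR from an arabinose-inducible pBAD promoter, and pSC11-cepI, which fuses lacZ to the cepI promoter. Induced cells were grown 4 h with compound and 10 nM C8-AHL. β-Galactosidase activity was then read by CPRG cleavage at 37 °C after Z Buffer permeabilization.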

[4] abbreviates: Bm-reporter, against 5 nM C8-AHL.
[5] abbreviates: Table S3, Ec-reporter, against 10 nM C8-AHL.
Where [6] appears, read: Ec-reporter, against 10 nM C8-AHL.

Positions count from the first letter of the chain named. Like-named read-outs stand apart in the source and are kept apart here.

For the compound `O=C(Cc1ccc([N+](=O)[O-])cc1)N[C@H]1CCOC1=O` [Compound C13], on CepR [1] (Bm-reporter), the “CepR antagonism in words” value is “bring reporter activity down to nearly zero”. Further, on CepR [1] (setting [4]), the “Maximal Inhibition (%)” value was 96% and the IC50 stood at 3.6 µM. Further, the Act% at CepR [2] is 1.1%. Besides, the IC50 at CepR [3] (Table S3, Ec-reporter) came to 6.7 µM. The “Inh% (100-Act%)” value at CepR [3] (setting [5]) is given as 79%.

For `O=C(COc1cccc([N+](=O)[O-])c1)N[C@H]1CCOC1=O` [Compound E25], the “Maximal Inhibition (%)” value stood at 83% on CepR [1] (setting [4]) and 70% at CepR [3] (setting [6]). Besides, the IC50 on CepR [1] (Table S5, Bm-reporter) was no less than 3.3 µM; on CepR [3] (setting [6]), 3 µM. In addition, the Act% at CepR [2] was 25%.

For the compound `CCCCCCS(=O)(=O)N[C@H]1CCOC1=O` [Compound A11], at CepR [1] (Table S5, Bm-reporter), the “Inh% (100-Act%)” value was determined as 84%. Further, on CepR [2] (Ec-reporter), the “CepR agonism in words” value was “failed to activate CepR” and the “Maximal Activation (%)” value is −5.0%. Moreover, on CepR [2], the Act% is -5.0%. For the same compound, the “Maximal Inhibition (%)” value at CepR [3] (setting [6]) was found to be 78%.

As for `O=C(Cc1ccccc1I)N[C@H]1CCOC1=O` [Compound C12], the “Inh% (100-Act%)” value is listed as 104% at CepR [1] (Table S5, Bm-reporter) and 72% at CepR [3] (setting [5]). Besides, the Act% at CepR [2] is reported as -0.4%. This compound gave an IC50 at CepR [3] (Table S3, Ec-reporter) of 22 µM.

For `CCCCCCCCCC(=O)CC(=O)Nc1ccccc1O` [Control 14, reference compound], the “Inh% (100-Act%)” value is given as 25% on CepR [1] (Table S5, Bm-reporter) and 30% at CepR [3] (setting [5]). Moreover, on CepR [2], the Act% was found to be 30%.

With `O=C(N[C@H]1CCOC1=O)C1CCCC1` [Compound S4], the “Maximal Inhibition (%)” value stood at 93% at CepR [1] (setting [4]) and 72% on CepR [3] (setting [6]). Besides, the IC50 was determined as 3.7 µM at CepR [1] (setting [4]) and 32 µM at CepR [3] (setting [6]). In addition, the Act% at CepR [2] stood at 0.2%.

For the compound `O=C(Cc1ccccc1[N+](=O)[O-])N[C@H]1CCOC1=O` [Compound C15], the “Inh% (100-Act%)” value on CepR [1] (Table S5, Bm-reporter) was 95%; on CepR [3] (setting [5]) it was 79%. Also, on CepR [2], the Act% was determined as 1.4%.

For the compound `O=C(Cc1ccc(Cl)c(Cl)c1)N[C@H]1CCOC1=O` [Compound E11], the “Inh% (100-Act%)” value at CepR [1] (Table S5, Bm-reporter) was 94%; on CepR [3] (setting [5]), 59%. Also, the Act% at CepR [2] worked out at 1.9%.

Consider `N#Cc1ccc(CC(=O)N[C@H]2CCOC2=O)cc1` [Compound E4], for which, at CepR [1] (Table S5, Bm-reporter), the IC50 is no less than 4.5 µM and the “Inh% (100-Act%)” value is listed as 97%. Moreover, the Act% on CepR [2] is 0.2%. For the same compound, at CepR [3] (setting [5]), the “Inh% (100-Act%)” value is given as 29%.

As for `N#Cc1cccc(CC(=O)N[C@H]2CCOC2=O)c1` [Compound E5], the “Maximal Inhibition (%)” value on CepR [1] (setting [4]) is 43%. In addition, on CepR [2], the Act% worked out at 4.9%. Further, at CepR [3] (setting [6]), the IC50 is 2.7 µM and the “Maximal Inhibition (%)” value turned out to be 81%.

With `CCCC(=O)N[C@H]1CCOC1=O` [Compound C4-AHL, butanoyl L-homoserine lactone, reference compound], at CepR [1] (setting [4]), the “Maximal Inhibition (%)” value turned out to be 76% and the IC50 turned out to be 0.25 µM. Besides, the “Maximal Activation (%)” value on CepR [2] (Ec-reporter) is recorded as 23%. In addition, the Act% at CepR [2] came to 23%. Also, at CepR [3] (setting [6]), the IC50 came to 20 µM and the “Maximal Inhibition (%)” value came to 58%.

As for `O=C(Cc1cccc(Cl)c1)N[C@H]1CCOC1=O` [Compound C6], the “Inh% (100-Act%)” value on CepR [1] (Table S5, Bm-reporter) was determined as 98%. For the same compound, the Act% on CepR [2] was 3.2%. On CepR [3] (setting [6]), the IC50 was determined as 39 µM and the “Maximal Inhibition (%)” value is 66%.

Take `O=C(Cc1cccc([N+](=O)[O-])c1)NC1CCOC1=O` (stereo not shown) [Compound C14]: at CepR [1] (setting [4]), the “Maximal Inhibition (%)” value worked out at 54% and the IC50 is 0.62 µM. Moreover, the Act% on CepR [2] is 16%. Also, on CepR [3] (setting [6]), the IC50 was 1.4 µM and the “Maximal Inhibition (%)” value is 46%.

For `O=C(Cc1ccccc1Br)N[C@H]1CCOC1=O` [Compound C9], the “Inh% (100-Act%)” value on CepR [1] (Table S5, Bm-reporter) is listed as 99%; on CepR [3] (setting [5]) it was 52%. The Act% at CepR [2] turned out to be 0.3%. On CepR [3] (Table S3, Ec-reporter), this compound displayed a concentration for half-maximal inhibition (IC50) of 40 µM.

For `O=C(Nc1ccccc1NC(=O)c1cccc(Cl)c1)c1cccc(Cl)c1` [TP-5, reference compound], the “Inh% (100-Act%)” value at CepR [1] (Table S5, Bm-reporter) is reported as 15%; at CepR [3] (setting [5]), 24%. For the same compound, the Act% on CepR [2] turned out to be 0.4%.

Broadly, the IC50 is the concentration that inhibits the measured activity by half.
